Measurements published in PMC11284790, “Targeting Myeloperoxidase Ameliorates Gouty Arthritis: A Virtual Screening Success Story” (Journal of Medicinal Chemistry, 2024).

Legend:
Human leukocyte MPO [1] = target: T1, Human leukocyte MPO (Homo sapiens, UniProt P05164); test: MPO chlorinating activity assay (taurine chloramine/TMB); format: biochemical; design: Human leukocyte MPO (EC 1.7.1.11) was purchased from Planta Natural Products; purchased Planta Natural Products (Vienna, Austria); host or cells: human leukocytes; conditions: for chlorinating/peroxidatic activity inhibition ratio: ratio of % inhibition at 20 μM, ~1 indicates true enzyme inhibitor; for IC50: pH 7.4
Description: Chlorinating activity was carried out in phosphate buffer (20 mM, pH 7.4). Compounds (20 μM) were dissolved in 0.03% DMSO, MPO (10 nM), diethylenetriaminepentaacetic acid (100 μM), cetyltrimethylammonium chloride (0.03%), NaCl (140 mM), and taurine (5 mM).[31] This mixture was incubated at 37 °C for 15 min before adding 40 μM hydrogen peroxide. The reaction ran for 8 min and was then stopped by catalase (20 μg/mL). Oxidation of TMB (2 mM) (3,3,5,5-tetramethylbenzidine) by taurine chloroamine catalyzed by iodide (100 μM) was quantified at 650 nm.[33] Results were expressed as a percentage of the control (vehicle). IC50 was calculated by nonlinear regression using the Hill equation present in GraphPad Prism 5 software.

Human leukocyte MPO [2] = target: T1, Human leukocyte MPO; test: MPO peroxidatic activity assay (AmplexRed oxidation); format: biochemical; design: Human leukocyte MPO (EC 1.7.1.11) was purchased from Planta Natural Products; purchased Planta Natural Products (Vienna, Austria); host or cells: human leukocytes
Description: MPO peroxidase activity was kinetically monitored using the artificial peroxidase substrate AmplexRed, which is oxidized to resorufin and can be detected by fluorescence.[34] Reactions were carried out in phosphate buffer (50 mM, pH 7.4), MPO (100 pM), cetyltrimethylammonium chloride (0.03%), diethylenetriaminepentaacetic acid (100 μM), AmplexRed (30 μM), and compounds (20 μM in 0.3% DMSO). The reaction was started by adding 2 μM hydrogen peroxide. The reaction product was assessed by fluorescence at λex = 530 and λem = 580 nm. The initial velocity was calculated by the slope of the linear regression in the first minutes of reaction. Inhibition is represented as a percentage of the control (vehicle).

[3] = Taurine chloroamine scavenger assay; conditions: 15 min at 37 °C, TMB readout
Description: Taurine chloramine was prepared by mixing hypochlorous acid (2.81 mM) with taurine (5 mM), cetyltrimethylammonium chloride (0.03%), NaCl (140 mM), and diethylenetriaminepentaacetic acid (100 μM) in phosphate buffer (20 mM, pH 7.4). The system was kept at 37 °C for 5 min for complete chloramine taurine formation. The compounds were added to this mixture and incubated for 15 min at 37 °C. Taurine chloramine was quantified by the oxidation of TMB (2 mM) catalyzed by iodide (100 μM).[33]

dHL-60 cells = test: Cellular production of HOCl, PMA-activated dHL-60 cells; format: cell-based, human; conditions: 20 μM compound, 100 nM PMA, 1 h
Description: Human promyelocytic leukemic cells (HL-60) (BCRJ, RJ, Brazil) were cultivated in RPMI with fetal bovine serum (10%), penicillin (62 μg/mL), and streptomycin (100 μg/mL) at 37 °C in 5% CO2 atmosphere. HL-60 cells were differentiated to neutrophil-like (dHL-60) by DMSO (1.25%) during 4 days.[25]
(§1) Measurement of HOCl production by 1 × 10^6 dHL-60 or neutrophils was carried out in PBS (10 mM Na2HPO4, 2 mM KH2PO4, 0.5 mM MgCl2, 1 mM CaCl2, 140 mM NaCl, 5.5 mM dextrose, 100 μM diethylenetriaminepentaacetic acid, 5 mM taurine) in the presence of the compounds (20 μM in 0.3% DMSO) or 0.3% DMSO (control). Cells were activated with phorbol myristate acetate (100 nM) at 37 °C for 1 h. After incubation, cells were centrifuged at 1400 rpm for 10 min, and the supernatant was diluted threefold. Finally, 240 μL of this supernatant was added to 60 μL acetate buffer (400 mM, pH 5.4) containing NaI (100 μM) and TMB (2 mM in DMFO 10%). Taurine chloramine was quantified by TMB oxidation at 655 nm.[33] Inhibition of HOCl production was calculated as the percentage of the control (vehicle).

[4] = tested on: human peripheral blood neutrophils; test: Cellular production of HOCl, PMA-activated peripheral blood neutrophils; format: cell-based; conditions: 20 μM compound, 100 nM PMA, 1 h
Description: Human neutrophils were obtained from healthy individuals as previously described.[24] The experiments were approved by the local ethics committee (CEPSH-ICB 1435/18).
as §1

[5] = 20 μM compound, 10 nM MPO, 140 mM NaCl, 5 mM taurine, 40 μM H2O2, pH 7.4, read-out: % Inhibition (at 20 μM) Chlorinating
[6] = supplementary csv copy of Table 1, read-out: % Inhibition (Chlorinating)
[7] = 20 μM compound, 100 pM MPO, 30 μM AmplexRed, 2 μM H2O2, pH 7.4, read-out: % Inhibition (at 20 μM) Peroxidatic
[8] = supplementary csv copy of Table 1, read-out: % Inhibition (Peroxidatic)
[9] = 20 μM compound, 10 nM MPO, 140 mM NaCl, 5 mM taurine, 40 μM H2O2, pH 7.4
[10] = supplementary csv copy of Table 1
[11] = 20 μM compound, 100 pM MPO, 30 μM AmplexRed, 2 μM H2O2, pH 7.4

T1 sequence (P05164 279-745 limits assumed): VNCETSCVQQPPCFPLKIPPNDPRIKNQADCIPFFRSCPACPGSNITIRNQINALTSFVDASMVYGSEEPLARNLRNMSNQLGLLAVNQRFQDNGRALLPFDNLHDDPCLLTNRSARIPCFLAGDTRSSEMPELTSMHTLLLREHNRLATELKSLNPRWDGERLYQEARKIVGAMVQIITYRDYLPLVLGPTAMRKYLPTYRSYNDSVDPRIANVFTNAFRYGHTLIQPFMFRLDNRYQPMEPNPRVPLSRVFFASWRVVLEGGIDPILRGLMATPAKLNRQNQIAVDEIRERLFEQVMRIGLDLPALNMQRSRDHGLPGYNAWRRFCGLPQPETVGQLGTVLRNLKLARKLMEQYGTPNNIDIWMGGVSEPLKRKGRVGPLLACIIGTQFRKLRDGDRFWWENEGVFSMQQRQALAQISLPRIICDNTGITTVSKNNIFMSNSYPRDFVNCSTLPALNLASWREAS
T1 sequence (P05164 165-278 limits assumed): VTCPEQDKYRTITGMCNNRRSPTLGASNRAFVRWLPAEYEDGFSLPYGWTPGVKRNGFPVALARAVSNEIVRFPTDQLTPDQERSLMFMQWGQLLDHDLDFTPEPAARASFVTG

Work on CC1=Nc2ccc(Cl)cc2-c2[nH]c3ccccc3c2N1 [RL1] yielded an inhibition at 20 µM (Human leukocyte MPO [1]; [5]) of 50.2 ± 4%, an inhibition at 20 µM (Human leukocyte MPO [1]; [6]) of 50.2 ± 4% and an inhibition at 20 µM (Human leukocyte MPO [2]; [7]) of 81 ± 15.1%. For the same molecule, the inhibition at 20 µM (Human leukocyte MPO [2]; [8]) was 81 ± 15.1%.
For CC1CCc2sc3c(c2C1)c1ncnn1c1nnc(S)n31 (centres unmarked) [RL9], the inhibition at 20 µM (Human leukocyte MPO [1]; [5]) was 92 ± 3.2%, the “chlorinating/peroxidatic activity inhibition ratio” value (Human leukocyte MPO [1]) was “high” and the inhibition at 20 µM (Human leukocyte MPO [1]; [6]) was 92 ± 3.2%. For the same molecule, the inhibition at 20 µM (Human leukocyte MPO [2]; [7]) was 42.1 ± 7.9% and the inhibition at 20 µM (Human leukocyte MPO [2]; [8]) was 42.1 ± 7.9%.
For COc1cc(/C=N/NC(=O)c2ccoc2C)ccc1OCCN1CCCCC1 [RL15], the “% Inhibition (at 20 μM) Chlorinating” value (Human leukocyte MPO [1]; [9]) was “INACTIVE” and the “% Inhibition (Chlorinating)” value (Human leukocyte MPO [1]; [10]) was “INACTIVE”.
With CCOC(=O)C(Cc1ccc(O)cc1)NC1=CC(=O)C(=O)c2ccccc21 (centres unmarked) [RL16] the “% Inhibition (at 20 μM) Chlorinating” value (Human leukocyte MPO [1]; [9]) was “INACTIVE”, the “% Inhibition (Chlorinating)” value (Human leukocyte MPO [1]; [10]) was “INACTIVE” and the “% Inhibition (at 20 μM) Peroxidatic” value (Human leukocyte MPO [2]; [11]) was “inhibited exclusively the peroxidatic assay”. It also gave an inhibition at 20 µM (Human leukocyte MPO [2]; [7]) of 67.1 ± 8.1% and an inhibition at 20 µM (Human leukocyte MPO [2]; [8]) of 67.1 ± 8.1%.
With O=C1ON=C(c2ccccc2)/C1=C\c1cccc(O)c1 [RL17] the inhibition at 20 µM (Human leukocyte MPO [1]; [5]) was 63 ± 6.2%, the “chlorinating/peroxidatic activity inhibition ratio” value (Human leukocyte MPO [1]) was “high” and the inhibition at 20 µM (Human leukocyte MPO [1]; [6]) was 63 ± 6.2%. For the same molecule, the inhibition at 20 µM (Human leukocyte MPO [2]; [7]) was 24 ± 4.1% and the inhibition at 20 µM (Human leukocyte MPO [2]; [8]) was 24 ± 4.1%.
In the case of COc1ccc(C(=O)Nc2ccc(-c3nnc(S)o3)cc2)cc1 [RL18], the “scavenger activity toward taurine chloramine” value [3] is reported as “scavenger capacity”, the “inhibition of HOCl production in dHL-60 cells” value (dHL-60 cells) is reported as “no effect” and the “inhibition of HOCl production in peripheral blood neutrophils” value [4] is reported as “no effect”. The IC50 (Human leukocyte MPO [1]; 10 nM MPO, 140 mM NaCl) was 12 µM, the “% Inhibition (at 20 μM) Chlorinating” value (Human leukocyte MPO [1]; [9]) was “active against chlorinating activity only” and the inhibition at 20 µM (Human leukocyte MPO [1]; [5]) was 73 ± 19.7%. The “chlorinating/peroxidatic activity inhibition ratio” value (Human leukocyte MPO [1]) was “high”, the inhibition at 20 µM (Human leukocyte MPO [1]; [6]) was 73 ± 19.7% and the “% Inhibition (at 20 μM) Peroxidatic” value (Human leukocyte MPO [2]; [11]) was “INACTIVE”. The “% Inhibition (Peroxidatic)” value (Human leukocyte MPO [2]; [10]) was “INACTIVE”.
In the case of N#CC1=C(N)Oc2c(c(=O)sc3ccccc23)C1c1ccc(F)cc1 (centres unmarked) [RL20], the “% Inhibition (at 20 μM) Chlorinating” value (Human leukocyte MPO [1]; [9]) is reported as “INACTIVE”, the “% Inhibition (Chlorinating)” value (Human leukocyte MPO [1]; [10]) is reported as “INACTIVE” and the “% Inhibition (at 20 μM) Peroxidatic” value (Human leukocyte MPO [2]; [11]) is reported as “inhibited exclusively the peroxidatic assay”. The inhibition at 20 µM (Human leukocyte MPO [2]; [7]) was 34 ± 4.3% and the inhibition at 20 µM (Human leukocyte MPO [2]; [8]) was 34 ± 4.3%.
CCc1n[nH]c2c1C(c1ccc(O)c(OC)c1)C(C#N)=C(N)O2 (centres unmarked) [RL23] showed an inhibition at 20 µM (Human leukocyte MPO [1]; [5]) of 57.8 ± 13.9%, an inhibition at 20 µM (Human leukocyte MPO [1]; [6]) of 57.8 ± 13.9% and an inhibition at 20 µM (Human leukocyte MPO [2]; [7]) of 25.1 ± 3.2%. The inhibition at 20 µM (Human leukocyte MPO [2]; [8]) was 25.1 ± 3.2%.
With CCOC(=O)C1=C(N)Oc2cc(O)ccc2C1c1ccc(F)cc1F (centres unmarked) [RL24] the inhibition at 20 µM (Human leukocyte MPO [1]; [5]) was 40.1 ± 5.5%, the inhibition at 20 µM (Human leukocyte MPO [1]; [6]) was 40.1 ± 5.5% and the inhibition at 20 µM (Human leukocyte MPO [2]; [7]) was 59.1 ± 2.9%. For the same molecule, the inhibition at 20 µM (Human leukocyte MPO [2]; [8]) was 59.1 ± 2.9%.
In the case of O=c1c2cnc3cc(C(F)(F)F)ccc3c2sc2nncn12 [RL25], the “% Inhibition (at 20 μM) Chlorinating” value (Human leukocyte MPO [1]; [9]) is reported as “INACTIVE”, the “% Inhibition (Chlorinating)” value (Human leukocyte MPO [1]; [10]) is reported as “INACTIVE” and the “% Inhibition (at 20 μM) Peroxidatic” value (Human leukocyte MPO [2]; [11]) is reported as “INACTIVE”. For the same molecule, the “% Inhibition (Peroxidatic)” value (Human leukocyte MPO [2]; [10]) was “INACTIVE”.
For CCCOc1ccc(C2C(C#N)=C(N)SC(N)=C2C#N)cc1OC [RL26], the “scavenger activity toward taurine chloramine” value [3] was “decreased both taurine chloroamine”, the IC50 (Human leukocyte MPO [1]; 10 nM MPO, 140 mM NaCl) was 12.6 µM and the inhibition at 20 µM (Human leukocyte MPO [1]; [5]) was 81 ± 5.8%. The inhibition at 20 µM (Human leukocyte MPO [1]; [6]) was 81 ± 5.8%, the inhibition at 20 µM (Human leukocyte MPO [2]; [7]) was 78.7 ± 4.2% and the inhibition at 20 µM (Human leukocyte MPO [2]; [8]) was 78.7 ± 4.2%.
In the case of CC1CCCc2sc3nc(S)n(N)c(=O)c3c21 (centres unmarked) [RL27], the inhibition at 20 µM (Human leukocyte MPO [1]; [5]) is reported as 18.6 ± 1.6%, the inhibition at 20 µM (Human leukocyte MPO [1]; [6]) is reported as 18.6 ± 1.6% and the inhibition at 20 µM (Human leukocyte MPO [2]; [7]) is reported as 29.5 ± 2.9%. For the same molecule, the inhibition at 20 µM (Human leukocyte MPO [2]; [8]) was 29.5 ± 2.9%.
In the case of CCCNc1ncnc2cc(-c3ccc(OC)cc3)sc12 [RL28], the “% Inhibition (at 20 μM) Chlorinating” value (Human leukocyte MPO [1]; [9]) is reported as “INACTIVE”, the “% Inhibition (Chlorinating)” value (Human leukocyte MPO [1]; [10]) is reported as “INACTIVE” and the “% Inhibition (at 20 μM) Peroxidatic” value (Human leukocyte MPO [2]; [11]) is reported as “INACTIVE”. For the same molecule, the “% Inhibition (Peroxidatic)” value (Human leukocyte MPO [2]; [10]) was “INACTIVE”.
